Results: PMC5218480 (PLoS ONE, 2017)

Tested on: MV-4-11 cells
Assay: Gene expression microarray analysis (Affymetrix PrimeView) and GSEA
Format: cell-based, human
Design: RFU PODN (11730768_x_at) / Fold change /veh PODN (11730768_x_at) / RFU LINC00158 (11744669_a_at) / Fold change /veh LINC00158 (11744669_a_at) / RFU DUSP10 (11751237_a_at) / Fold change /veh DUSP10 (11751237_a_at) / RFU ID3 (11757404_x_at) / Fold change /veh ID3 (11757404_x_at) / RFU PLEKHG5 (11737974_s_at) / Fold change /veh PLEKHG5 (11737974_s_at) / RFU LRRC4B (11730491_at) / Fold change /veh LRRC4B (11730491_at) / RFU GIMAP4 (11747438_a_at) / Fold change /veh GIMAP4 (11747438_a_at) / RFU KRT8 (11758183_x_at) / Fold change /veh KRT8 (11758183_x_at) / RFU CNN1 (11734310_a_at) / Fold change /veh CNN1 (11734310_a_at) / RFU VPS37D (11726825_at) / Fold change /veh VPS37D (11726825_at) / RFU C10orf10 (11716522_x_at) / Fold change /veh C10orf10 (11716522_x_at) / RFU KIR2DL2 /// KIR2DL4 /// KIR2DL5A /// KIR2DL5B /// KIR2DS1 /// KIR2DS2 /// KIR2DS3 /// KIR2DS4 /// KIR3DL3 /// KIR3DL3 /// KIR3DS1 (11738374_at) / Fold change /veh KIR2DL2 /// KIR2DL4 /// KIR2DL5A /// KIR2DL5B /// KIR2DS1 /// KIR2DS2 /// KIR2DS3 /// KIR2DS4 /// KIR3DL3 /// KIR3DL3 /// KIR3DS1 (11738374_at) / RFU C1QL1 (11718748_at) / Fold change /veh C1QL1 (11718748_at) / RFU TMPRSS4 (11747572_a_at) / Fold change /veh TMPRSS4 (11747572_a_at) / RFU HAMP (11756126_x_at) / Fold change /veh HAMP (11756126_x_at) / RFU RNFT2 (11725882_a_at) / Fold change /veh RNFT2 (11725882_a_at) / RFU NR4A2 (11747474_a_at) / Fold change /veh NR4A2 (11747474_a_at) / RFU ABCC12 (11746883_a_at) / Fold change /veh ABCC12 (11746883_a_at) / RFU TMEM136 (11760407_x_at) / Fold change /veh TMEM136 (11760407_x_at) / RFU CLDN22 /// WWC2 (11732394_at) / Fold change /veh CLDN22 /// WWC2 (11732394_at) / RFU HLA-DPB1 (11760878_x_at) / Fold change /veh HLA-DPB1 (11760878_x_at) / RFU SPINT1 (11716480_a_at) / Fold change /veh SPINT1 (11716480_a_at) / RFU GAP43 (11754022_s_at) / Fold change /veh GAP43 (11754022_s_at) / RFU A4GNT (11735810_at) / Fold change /veh A4GNT (11735810_at) / RFU PRB3 (11715151_x_at) / Fold change /veh PRB3 (11715151_x_at) / RFU TUBB4B (11761932_at) / Fold change /veh TUBB4B (11761932_at) / RFU CAPN14 (11732068_a_at) / Fold change /veh CAPN14 (11732068_a_at) / RFU TMCC2 (11721928_a_at) / Fold change /veh TMCC2 (11721928_a_at) / RFU IRGQ (11745062_a_at) / Fold change /veh IRGQ (11745062_a_at) / RFU FAM174B (11720279_a_at) / Fold change /veh FAM174B (11720279_a_at) / RFU TMPRSS4 (11748680_a_at) / Fold change /veh TMPRSS4 (11748680_a_at) / RFU FAM212B (11763350_a_at) / Fold change /veh FAM212B (11763350_a_at) / RFU PLEKHG5 (11743358_a_at) / Fold change /veh PLEKHG5 (11743358_a_at) / RFU ZSCAN30 (11745921_a_at) / Fold change /veh ZSCAN30 (11745921_a_at) / RFU CMKLR1 (11741424_a_at) / Fold change /veh CMKLR1 (11741424_a_at) / RFU LOC101060620 /// MAPK8IP1 (11723275_at) / Fold change /veh LOC101060620 /// MAPK8IP1 (11723275_at) / RFU SPTSSB (11747773_x_at) / Fold change /veh SPTSSB (11747773_x_at) / RFU PRSS12 (11739890_at) / Fold change /veh PRSS12 (11739890_at) / RFU BIN1 (11741810_x_at) / Fold change /veh BIN1 (11741810_x_at) / RFU WNT11 (11732464_a_at) / Fold change /veh WNT11 (11732464_a_at) / RFU C10orf10 (11716521_a_at) / Fold change /veh C10orf10 (11716521_a_at) / RFU C5orf56 (11738089_at) / Fold change /veh C5orf56 (11738089_at) / RFU CYB561 (11721691_x_at) / Fold change /veh CYB561 (11721691_x_at) / RFU ANKRD19P (11752326_a_at) / Fold change /veh ANKRD19P (11752326_a_at) / RFU OR2T12 /// OR2T33 /// OR2T8 (11738714_s_at) / Fold change /veh OR2T12 /// OR2T33 /// OR2T8 (11738714_s_at) / RFU VCAN (11748164_a_at) / Fold change /veh VCAN (11748164_a_at) / RFU JSRP1 (11732532_at) / Fold change /veh JSRP1 (11732532_at) / RFU KRTAP10-11 (11738290_x_at) / Fold change /veh KRTAP10-11 (11738290_x_at) / RFU MYO3A (11730013_a_at) / Fold change /veh MYO3A (11730013_a_at) / RFU EBF3 (11725865_a_at) / Fold change /veh EBF3 (11725865_a_at) / RFU CAMK2N1 (11719241_x_at) / Fold change /veh CAMK2N1 (11719241_x_at) / RFU C5orf56 (11738088_a_at) / Fold change /veh C5orf56 (11738088_a_at) / RFU OLFML3 (11715873_a_at) / Fold change /veh OLFML3 (11715873_a_at) / RFU LOC100653217 /// NTM (11731650_a_at) / Fold change /veh LOC100653217 /// NTM (11731650_a_at) / RFU MAPK11 (11762145_a_at) / Fold change /veh MAPK11 (11762145_a_at) / RFU FIZ1 (11724087_x_at) / Fold change /veh FIZ1 (11724087_x_at) / RFU OASL (11726364_x_at) / Fold change /veh OASL (11726364_x_at) / RFU SOX15 (11748057_x_at) / Fold change /veh SOX15 (11748057_x_at) / RFU CD79A (11719716_a_at) / Fold change /veh CD79A (11719716_a_at) / RFU HIST1H1D (11736915_at) / Fold change /veh HIST1H1D (11736915_at) / RFU CASKIN2 (11723855_a_at) / Fold change /veh CASKIN2 (11723855_a_at) / RFU LOC730098 (11760151_x_at) / Fold change /veh LOC730098 (11760151_x_at) / RFU OR4N2 (11742367_at) / Fold change /veh OR4N2 (11742367_at) / RFU PRRT2 (11749266_a_at) / Fold change /veh PRRT2 (11749266_a_at) / RFU SNX32 (11753110_a_at) / Fold change /veh SNX32 (11753110_a_at) / RFU CDHR5 (11726645_a_at) / Fold change /veh CDHR5 (11726645_a_at) / RFU RCAN1 (11760418_a_at) / Fold change /veh RCAN1 (11760418_a_at) / RFU FAM167A (11723789_a_at) / Fold change /veh FAM167A (11723789_a_at) / RFU FAM26E (11764081_at) / Fold change /veh FAM26E (11764081_at) / RFU ISYNA1 (11749810_s_at) / Fold change /veh ISYNA1 (11749810_s_at) / RFU ACY1 (11761880_at) / Fold change /veh ACY1 (11761880_at) / RFU 11764098_at / Fold change /veh 11764098_at / RFU SAMD14 (11745864_x_at) / Fold change /veh SAMD14 (11745864_x_at) / RFU NPB (11741838_a_at) / Fold change /veh NPB (11741838_a_at) / RFU TMPRSS6 (11731388_a_at) / Fold change /veh TMPRSS6 (11731388_a_at) / RFU KRTAP10-2 (11738614_at) / Fold change /veh KRTAP10-2 (11738614_at) / RFU ARHGAP8 /// PRR5-ARHGAP8 (11727945_x_at) / Fold change /veh ARHGAP8 /// PRR5-ARHGAP8 (11727945_x_at) / RFU KRTAP5-7 /// NADSYN1 (11734609_at) / Fold change /veh KRTAP5-7 /// NADSYN1 (11734609_at) / RFU RASL12 (11751679_a_at) / Fold change /veh RASL12 (11751679_a_at) / RFU CDKN2B (11736163_a_at) / Fold change /veh CDKN2B (11736163_a_at) / RFU PRF1 (11729649_at) / Fold change /veh PRF1 (11729649_at) / RFU, ZNF638 /// ZNF638-IT1 / Fold change vs veh, ZNF638 /// ZNF638-IT1 / RFU, PANK3 / Fold change vs veh, PANK3 / RFU, SH3YL1 / Fold change vs veh, SH3YL1 / RFU, ZEB2 / Fold change vs veh, ZEB2 / RFU, NRIP1 / Fold change vs veh, NRIP1 / RFU, PTTG1IP / Fold change vs veh, PTTG1IP / RFU, CAPN2 / Fold change vs veh, CAPN2 / RFU, MED14 / Fold change vs veh, MED14 / RFU, SNORA58 / Fold change vs veh, SNORA58 / RFU, C1orf63 / Fold change vs veh, C1orf63 / RFU, LRRFIP1 / Fold change vs veh, LRRFIP1 / RFU, NDUFAF7 / Fold change vs veh, NDUFAF7 / RFU, SLC12A2 / Fold change vs veh, SLC12A2 / RFU, IBTK / Fold change vs veh, IBTK / RFU, ESF1 / Fold change vs veh, ESF1 / Fold change vs veh, TMEM50B / RFU, TAOK1 / Fold change vs veh, TAOK1 / RFU, ACBD3 / Fold change vs veh, ACBD3 / RFU, TMA16 / Fold change vs veh, TMA16 / RFU, RWDD3 / Fold change vs veh, RWDD3 / RFU, BCAT1 / Fold change vs veh, BCAT1 / RFU, EDEM3 / Fold change vs veh, EDEM3 / RFU, TMEM33 / Fold change vs veh, TMEM33 / RFU, WDR75 / Fold change vs veh, WDR75 / RFU, AHCTF1 / Fold change vs veh, AHCTF1 / RFU, TFRC / Fold change vs veh, TFRC / RFU, ZDHHC17 / Fold change vs veh, ZDHHC17 / RFU, NOM1 / Fold change vs veh, NOM1 / RFU, ARL8B / Fold change vs veh, ARL8B / RFU, ZBTB11 / Fold change vs veh, ZBTB11 / RFU, TAMM41 / Fold change vs veh, TAMM41 / RFU, KIAA1704 /// LOC100996395 / Fold change vs veh, KIAA1704 /// LOC100996395 / RFU, ING1 / Fold change vs veh, ING1 / RFU, TRMT61B / Fold change vs veh, TRMT61B / RFU, FUBP3 / Fold change vs veh, FUBP3 / RFU, TP53 / Fold change vs veh, TP53 / RFU, TNKS2 / Fold change vs veh, TNKS2 / RFU, ZFP14 / Fold change vs veh, ZFP14 / RFU, ACTR2 / Fold change vs veh, ACTR2 / RFU, PPP3R1 / Fold change vs veh, PPP3R1 / RFU, PIK3R1 / Fold change vs veh, PIK3R1 / RFU, HNRNPA1 / Fold change vs veh, HNRNPA1 / RFU, RNF170 / Fold change vs veh, RNF170 / RFU, ZNF28 / Fold change vs veh, ZNF28 / RFU, RNGTT / Fold change vs veh, RNGTT / RFU, OGT / Fold change vs veh, OGT / RFU, BRD1 / Fold change vs veh, BRD1 / RFU, MARS / Fold change vs veh, MARS / RFU, ZNF655 / Fold change vs veh, ZNF655 / RFU, FAHD1 / Fold change vs veh, FAHD1 / RFU, BDP1 / Fold change vs veh, BDP1 / RFU, LRRCC1 / Fold change vs veh, LRRCC1 / RFU, ARID1A / Fold change vs veh, ARID1A / RFU, ZNF146 / Fold change vs veh, ZNF146 / RFU, ZNF330 / Fold change vs veh, ZNF330 / RFU, GPN3 / Fold change vs veh, GPN3 / RFU, C9orf123 / Fold change vs veh, C9orf123 / RFU, N4BP2L2 / Fold change vs veh, N4BP2L2 / RFU, ARFIP1 / Fold change vs veh, ARFIP1 / RFU, FAM179B / Fold change vs veh, FAM179B / RFU, BCL10 / Fold change vs veh, BCL10 / RFU, UHRF1BP1L / Fold change vs veh, UHRF1BP1L / RFU, BET1 / Fold change vs veh, BET1 / RFU, CNOT2 / Fold change vs veh, CNOT2 / RFU, ZNF268 / Fold change vs veh, ZNF268 / Fold change vs veh, ZNF507 / RFU, DGCR2 / Fold change vs veh, DGCR2 / RFU, WDSUB1 / Fold change vs veh, WDSUB1 / Fold change vs veh, HSP90B1 /// MIR3652 / RFU, ADSS / Fold change vs veh, ADSS / RFU, GK / Fold change vs veh, GK / RFU, ZNF148 / Fold change vs veh, ZNF148 / RFU, TAF9 / Fold change vs veh, TAF9 / RFU, SLC1A5 / Fold change vs veh, SLC1A5 / RFU, SLMO2 / Fold change vs veh, SLMO2 / RFU, ABCC4 / Fold change vs veh, ABCC4 / RFU, LOC101060439 /// RAP1B / Fold change vs veh, LOC101060439 /// RAP1B / RFU, RFX7 / Fold change vs veh, RFX7 / RFU, GTPBP10 / Fold change vs veh, GTPBP10 / RFU, CNEP1R1 / Fold change vs veh, CNEP1R1 / RFU, BIVM-ERCC5 /// ERCC5 / Fold change vs veh, BIVM-ERCC5 /// ERCC5 / RFU, ILF3 / Fold change vs veh, ILF3 / RFU 11762660_at / Fold change /veh 11762660_at / RFU VCAN (11757783_s_at) / Fold change /veh VCAN (11757783_s_at) / RFU DDX43 (11728927_at) / Fold change /veh DDX43 (11728927_at) / RFU KRT8 (11758188_x_at) / Fold change /veh KRT8 (11758188_x_at) / RFU NKD1 (11759106_at) / Fold change /veh NKD1 (11759106_at) / RFU SRD5A1 (11742802_a_at) / Fold change /veh SRD5A1 (11742802_a_at) / RFU TPSAB1 /// TPSB2 (11721975_s_at) / Fold change /veh TPSAB1 /// TPSB2 (11721975_s_at) / RFU GSTM3 (11746129_a_at) / Fold change /veh GSTM3 (11746129_a_at) / RFU IL23R (11737362_x_at) / Fold change /veh IL23R (11737362_x_at) / RFU TMEM51 (11727254_a_at) / Fold change /veh TMEM51 (11727254_a_at) / RFU PIWIL2 (11732686_x_at) / Fold change /veh PIWIL2 (11732686_x_at) / RFU ORM1 (11744905_x_at) / Fold change /veh ORM1 (11744905_x_at) / RFU CCDC152 (11743942_at) / Fold change /veh CCDC152 (11743942_at) / RFU ECM1 (11717891_a_at) / Fold change /veh ECM1 (11717891_a_at) / RFU IL23R (11748794_a_at) / Fold change /veh IL23R (11748794_a_at) / RFU TNFAIP8L3 (11732012_x_at) / Fold change /veh TNFAIP8L3 (11732012_x_at) / RFU MBOAT4 (11741988_at) / Fold change /veh MBOAT4 (11741988_at) / RFU 11764193_at / Fold change /veh 11764193_at / RFU TMEM53 (11763286_at) / Fold change /veh TMEM53 (11763286_at) / RFU MAGEB2 (11727129_at) / Fold change /veh MAGEB2 (11727129_at) / RFU TMEM200A (11744735_a_at) / Fold change /veh TMEM200A (11744735_a_at) / RFU CCDC152 (11751479_a_at) / Fold change /veh CCDC152 (11751479_a_at) / RFU FAM211A (11726209_a_at) / Fold change /veh FAM211A (11726209_a_at) / RFU RGS16 (11746705_a_at) / Fold change /veh RGS16 (11746705_a_at) / RFU VCAN (11755009_s_at) / Fold change /veh VCAN (11755009_s_at) / RFU RHOB (11743442_s_at) / Fold change /veh RHOB (11743442_s_at) / RFU RGS16 (11720943_a_at) / Fold change /veh RGS16 (11720943_a_at) / RFU RGS16 (11720944_at) / Fold change /veh RGS16 (11720944_at) / RFU, VPS4B / Fold change vs veh, VPS4B / RFU, CREB1 / Fold change vs veh, CREB1 / RFU, DNAJC13 / Fold change vs veh, DNAJC13 / RFU, GNAQ / Fold change vs veh, GNAQ / RFU, CDK5R1 / Fold change vs veh, CDK5R1 / RFU, ZRANB3 / Fold change vs veh, ZRANB3 / RFU, CUL4A / Fold change vs veh, CUL4A / RFU, CCNY / Fold change vs veh, CCNY / RFU, UFL1 / Fold change vs veh, UFL1 / RFU, COG3 / Fold change vs veh, COG3 / RFU, DIAPH2 / Fold change vs veh, DIAPH2 / RFU, SKA2 / Fold change vs veh, SKA2 / RFU, AFF3 / Fold change vs veh, AFF3 / RFU, LMF1 / Fold change vs veh, LMF1 / RFU, IPO11 / Fold change vs veh, IPO11 / RFU, DFFB / Fold change vs veh, DFFB / RFU, FOXP1 / Fold change vs veh, FOXP1 / RFU, CARD8 / Fold change vs veh, CARD8 / RFU, STRN3 / Fold change vs veh, STRN3 / RFU, ADK / Fold change vs veh, ADK / RFU, RASSF2 / Fold change vs veh, RASSF2 / RFU, WIPF1 / Fold change vs veh, WIPF1 / RFU, LARP1B / Fold change vs veh, LARP1B / RFU, RASA1 / Fold change vs veh, RASA1 / RFU, RB1 / Fold change vs veh, RB1 / RFU, PPFIA1 / Fold change vs veh, PPFIA1 / RFU, MAT2A / Fold change vs veh, MAT2A / RFU, CCT5 / Fold change vs veh, CCT5 / RFU, WDR92 / Fold change vs veh, WDR92 / RFU, CUX1 / Fold change vs veh, CUX1 / RFU, TTC7A / Fold change vs veh, TTC7A / RFU, TMEM135 / Fold change vs veh, TMEM135 / RFU, DEPTOR / Fold change vs veh, DEPTOR / RFU, CPM / Fold change vs veh, CPM / RFU, DNAJB6 / Fold change vs veh, DNAJB6 / RFU, CACNA2D3 / Fold change vs veh, CACNA2D3 / RFU, DTX4 / Fold change vs veh, DTX4 / RFU, TFCP2 / Fold change vs veh, TFCP2 / RFU, GMCL1 /// GMCL1P1 / Fold change vs veh, GMCL1 /// GMCL1P1 / RFU, AEBP2 / Fold change vs veh, AEBP2 / RFU, SNHG1 /// SNORD22 /// SNORD25 /// SNORD26 /// SNORD27 /// SNORD28 /// SNORD29 /// SNORD31 / Fold change vs veh, SNHG1 /// SNORD22 /// SNORD25 /// SNORD26 /// SNORD27 /// SNORD28 /// SNORD29 /// SNORD31 / Fold change (Aza/veh), C12orf56 (ProbeSet 11735607_a_at) / Fold change (ACY-1035/veh), C12orf56 (ProbeSet 11735607_a_at) / Fold change (Aza/veh), FGFR1OP (ProbeSet 11751329_s_at) / Fold change (ACY-1035/veh), FGFR1OP (ProbeSet 11751329_s_at) / Fold change (Aza/veh), VPS36 (ProbeSet 11739960_a_at) / Fold change (ACY-1035/veh), VPS36 (ProbeSet 11739960_a_at) / RFU SYPL1 (11715823_x_at) / Fold change /veh SYPL1 (11715823_x_at) / RFU IGFBP7 (11715501_s_at) / Fold change /veh IGFBP7 (11715501_s_at) / RFU REEP3 (11722064_at) / Fold change /veh REEP3 (11722064_at) / RFU IGLL1 (11728026_x_at) / Fold change /veh IGLL1 (11728026_x_at): dose or concentration left out as unconfirmed
Conditions: ProbeSet 11741311_a_at; LIST B

Compound: Nc1ncn([C@@H]2O[C@H](CO)[C@@H](O)[C@H]2O)c(=O)n1 [azacitidine]
- Fold change vs veh, ZNF655: 0.98
